Laboratory results published in patent publication US7259140B2, “Heparin-binding peptides and uses thereof” (Thomas Jefferson University, priority 2003, dated 2007).
Ends that are not written are not given here.

Test system: anti-Factor Xa activity of Lovenox®
Assay: In vivo neutralization of the LMWH Lovenox in rats (anti-Factor Xa assay of plasma)
Description: Experiments were performed to test the ability of heparin-binding peptides of the invention to neutralize low molecular weight heparins which are used clinically, such as Lovenox®. To this end, rats were cannulated in the jugular and femoral veins. Lovenox® was injected through the jugular vein, and three minutes later the peptide was injected via the jugular vein. The peptides tested included (ARKKAAKA)4 (SEQ ID NO:31), C(ARKKAAKA)4C (SEQ ID NO:34), (ARKKAAKA)3ARKKCAKA (SEQ ID NO:33), and (ARKKAAKA)3VLVLVLVL (SEQ ID NO:5). Blood was collected from the femoral vein. 0.1 ml was collected at each time point. Plasma was prepared from each tube, and the anti-Factor Xa assay was performed.
Results. The dose response of each peptide from 2 mg/300 gm to 0.5 mg/300 gm was tested and a representative dose (1.0 mg) is shown in FIG. 4. […] The absorbance is inversely proportional to the heparin concentration. There is no heparin present when A405=0.7, and about 1 U/ml when A405=0.4. The events at the arrows are indicated in the box insert.

## ARKKAAKAARKKAAKAARKKAAKAVLVLVLVL [(ARKKAAKA)3VLVLVLVL]
  rank in in vivo neutralization of Lovenox: most effective at the lowest dose
